Laboratory results from patent US20060281787A1, “Bisindolyl maleimides useful for treating prostate cancer and akt-mediated diseases” (priority 2003, published 2006).

Assays:
[1] = test system: human cancer cell lines derived from prostate (both androgen-dependent and independent cell lines); assay: Apoptosis assay (Cell Death Detection ELISA), prostate; type: cell-based
Description: (§1) Apoptosis assays were executed using the Cell Death Detection ELISAPIUS (Roche, 1774425) assay kit strictly following the enclosed protocol.

[2] = test system: human cancer cell lines from non-Hodgkin's lymphoma; assay: Apoptosis assay (Cell Death Detection ELISA), non-Hodgkin's lymphoma; type: cell-based
Description: as §1

[3] = test system: human cancer cell lines derived from lung; assay: Apoptosis assay (Cell Death Detection ELISA), lung; type: cell-based
Description: as §1

[4] = test system: HCT116 colon cancer xenografts; assay: In vivo tumor inhibition, HCT116 xenografts; parameters: species or system athymic nude mice
Description: (§2) Approximately 5×10^6 tumor cells are implanted subcutaneously into the flank of athymic nude mice (Harlan, Indianapolis, Ind.). Treatment of tumors begins when the tumors reach 100 mm^3 and continues for 21 consecutive days twice per day PO. Body weight and tumor size are monitored weekly or twice weekly.

[5] = test system: forkhead transcription factor AFX; assay: Phosphorylation of AFX (western blot, AKT pathway readout); type: cell-based; details: readout of AKT pathway activity
Experimental: (§3) Protein lysates were prepared by incubation in RIPA Buffer (50 mM Tris-HCl, 150 mM NaCl, 1 mM EDTA, 1% NP40, 0.25% Sodium deoxycholate, 1 mM sodium fluoride, 1 mM sodium orthovanadate and Complete™ protease inhibitors (Roche Cat# 10019600) for one hour with rotation. The lysate was then centrifuged (10 minutes@ 10,000 rpm), supernatant harvested and protein concentrations were determined using the Bio-Rad DC Protein Assay (cat# 500-0122). Proteins were separated by SDS-PAGE using 4-20% tris-glycine gels (Invitrogen, cat# EC6028) and transferred to Hyper™-bond PVDF membrane (Amersham, cart# rpn303F). All primary antibodies were incubated overnight at 4° C. in 5% milk/1×PBS (Gibco, cat# 70011-044) solution. Horseradish peroxidase (HRP) linked secondary antibodies (Santa Cruz, cat# sc-2055, sc-2054) were incubated for a minimum of two hours prior to detection. Specific signal was determined by the Lumi-Imager™ and Lumi-Analyst software to define changes in protein expression and phosphorylation. […]

[6] = test system: 4EBP1; assay: Phosphorylation of 4EBP1 (western blot, AKT pathway readout); type: cell-based; details: readout of AKT pathway activity
Experimental: as §3

[7] = test system: GSK3β ser9 phosphorylation; assay: GSK3β ser9 phosphorylation in xenograft tissues of treated mice; type: in vivo; details: human tumor xenograft-bearing mice
Experimental: as §3
Approximately 5×10^6 tumor cells are implanted subcutaneously into the flank of athymic nude mice (Harlan, Indianapolis, Ind.). […] Body weight and tumor size are monitored weekly or twice weekly.

[8] = target: recombinant p70S6 kinase (Homo sapiens, UniProt P23443); assay: p70S6 kinase activity assay; type: biochemical; details: read-out: inhibits p70S6kinase, EC50
Experimental: (§4) The assay described measures the phosphorylation of the PDK1 consensus phosphorylation site PDK-tide peptide ([…]; cat # 14452, lot 23876U) by recombinant PDK-1 (UBI) at Km for ATP and PDKtide saturation using phosphocellulose membrane filter plates. Phosphorylation of the p70S6 kinase substrate by recombinant p70S6 kinase is also measured similarly.

[9] = test system: xenografts from the androgen-independent prostate carcinoma cell line PC3; assay: In vivo tumor inhibition, PC3 xenografts; parameters: species or system athymic nude mice
Description: as §2

[10] = target: T1, recombinant PDK-1 (Homo sapiens, UniProt O15530); assay: PDK-1 kinase activity assay (PDK-tide phosphorylation, phosphocellulose filter plates); type: biochemical; details: at Km for ATP and PDKtide saturation; read-out: inhibits PDK-1, EC50
T1 construct: purchased UBI
T1 sequence (O15530 1-556): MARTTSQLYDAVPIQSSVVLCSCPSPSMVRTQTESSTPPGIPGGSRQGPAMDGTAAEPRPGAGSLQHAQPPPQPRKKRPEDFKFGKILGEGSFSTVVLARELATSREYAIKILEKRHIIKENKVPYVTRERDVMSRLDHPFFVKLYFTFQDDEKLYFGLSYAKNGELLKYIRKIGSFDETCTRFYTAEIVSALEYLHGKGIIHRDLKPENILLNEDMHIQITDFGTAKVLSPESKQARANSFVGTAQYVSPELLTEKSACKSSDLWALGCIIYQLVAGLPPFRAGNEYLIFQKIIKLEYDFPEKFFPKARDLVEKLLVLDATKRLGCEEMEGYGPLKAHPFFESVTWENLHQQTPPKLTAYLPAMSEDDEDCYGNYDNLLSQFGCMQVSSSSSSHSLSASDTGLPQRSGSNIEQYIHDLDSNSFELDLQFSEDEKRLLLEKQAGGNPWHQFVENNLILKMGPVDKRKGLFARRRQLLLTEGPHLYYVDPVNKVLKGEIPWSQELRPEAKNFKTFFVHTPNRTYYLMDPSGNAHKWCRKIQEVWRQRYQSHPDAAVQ
Experimental: as §4

[11] = test system: U87MG glioblastoma xenografts; assay: In vivo tumor inhibition, U87MG xenografts; parameters: species or system athymic nude mice
Description: as §2

[12] = test system: GSK3β; assay: Phosphorylation of GSK3β (western blot, AKT pathway readout); type: cell-based; details: readout of AKT pathway activity
Experimental: as §3

[13] = test system: human cancer cell lines derived from colon; assay: Apoptosis assay (Cell Death Detection ELISA), colon; type: cell-based
Experimental: Both HCT116 colon carcinoma (cat#CCL-247) and U87MG glioblastoma (cat#HTB-14) cell lines were obtained from the American Type Culture Collection (ATCC). The standard growth media differed for each cell line but all were grown in 10% heat-inactivated FBS (Invitrogen cat# 10082-147), 37° C., 5% CO2 atmosphere and in a humidified chamber. Cell passage was completed one to two times per week using 0.25% trypsin/1 mM EDTA (Invitrogen, cat# 25200-056) solution maintaining cells in log phase growth. U87MG cells were cultured in DMEM media (Invitrogen cat# 11965-092), 1 mM non-essential amino acids (NEAA), and 0.1 mM Sodium Pyruvate. HCT116 cells were grown in McCoy's 5A Modified media (Invitrogen, cat# 16600-082), 0.15% sodium bicarbonate, 0.1 mM HEPES, 25 mM D-glucose and 0.1 mM sodium Pyruvate.
as §1

[14] = test system: ribosomal protein S6; assay: Phosphorylation of ribosomal protein S6 (western blot, AKT pathway readout); type: cell-based; details: readout of AKT pathway activity
Experimental: as §3

recombinant p70S6 kinase, sequence (P23443 whole entry): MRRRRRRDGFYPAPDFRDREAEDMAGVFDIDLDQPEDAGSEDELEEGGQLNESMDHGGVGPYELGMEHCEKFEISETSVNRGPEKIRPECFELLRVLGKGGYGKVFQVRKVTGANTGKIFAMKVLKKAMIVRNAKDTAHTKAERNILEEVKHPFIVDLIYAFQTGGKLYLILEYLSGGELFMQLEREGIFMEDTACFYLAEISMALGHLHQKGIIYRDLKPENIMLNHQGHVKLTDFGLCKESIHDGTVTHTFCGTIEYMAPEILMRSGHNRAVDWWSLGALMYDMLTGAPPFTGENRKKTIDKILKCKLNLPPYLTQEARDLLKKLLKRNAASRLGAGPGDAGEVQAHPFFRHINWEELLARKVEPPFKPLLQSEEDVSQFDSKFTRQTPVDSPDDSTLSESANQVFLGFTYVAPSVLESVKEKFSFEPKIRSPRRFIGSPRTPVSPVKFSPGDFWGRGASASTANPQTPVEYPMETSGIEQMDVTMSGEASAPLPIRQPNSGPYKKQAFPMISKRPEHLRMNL

In the case of `Cn1cc(C2=C(c3cn(C4CCNCC4)c4ccccc34)C(=O)NC2=O)c2ccccc21` [Compound 1], the induction of apoptosis [1] is reported as “induces apoptosis”, the induction of apoptosis [2] is reported as “induces apoptosis” and the induction of apoptosis [3] is reported as “induces apoptosis”. The anti-tumor efficacy [4] was “has been demonstrated”, the “phosphorylation of the forkhead transcription factor AFX” value [5] was “suppresses phosphorylation” and the “phosphorylation of 4EBP1” value [6] was “suppresses phosphorylation”. For the same compound, the “GSK3β ser9 phosphorylation in xenograft tissues” value ([7]; including an androgen-independent prostate carcinoma cell line) was “suppresses GSK3β ser9 phosphorylation”, the “duration of suppression of GSK3β ser9 phosphorylation post dosing” value ([7]; post dosing) was “up to 8 hours” and the EC50 [8] was less than 500 nM. The anti-tumor efficacy [9] was “has been demonstrated”, the EC50 [10] was 370 nM and the anti-tumor efficacy [11] was “has been demonstrated”. The “phosphorylation of GSK3β” value [12] was “suppresses phosphorylation”, the induction of apoptosis [13] was “induces apoptosis” and the “phosphorylation of ribosomal protein S6” value [14] was “suppresses phosphorylation”.
